Laboratory results from the supplement of paper PMC8837787.

Tested on: Saccharomyces cerevisiae ABC16-Green Monster
Assay: growth inhibition at single dose (up to 150 µM), below the 70% cut-off for dose-response; higher = more potent
Details: 18 h; 30 °C; YPD
In short: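 The entry is percent growth inhibition of drug-sensitive S. cerevisiae ABC16-Green Monster cells. After overnight growth in YPD at 30 °C, cells were diluted to OD600 0.1–0.2 and exposed to each library compound at 150 µM in 200 µl per well, in biological duplicates with untreated cultures beside them, and OD600 was read at 0 h and after 18 h at 30 °C. Any compound under 70% in both replicates was not carried to dose-response.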

## COc1ccc(C2c3ccc4ccccc4c3Oc3ncn(CCCn4ccnc4)c(=N)c32)cc1OC (stereo not given)
  growth inhibition at single dose: < 70%

## COc1ccc(-c2csc(N/C=C3/C(=O)NC(=O)c4ccccc43)n2)cc1OC
  growth inhibition at single dose: < 70%

## Cc1ccc(NC(=O)c2cc(C(C)(C)C)n(-c3ccccc3)c2C)cc1
  growth inhibition at single dose: < 70%

## O=C(Nc1cccc2ccccc12)N1CCN(c2ncccc2C(F)(F)F)CC1
  growth inhibition at single dose: < 70%

## COc1ccc(F)cc1CN(Cc1ccc(C(=O)NC2CC2)cc1)Cc1ccco1
  growth inhibition at single dose: < 70%

## COCCNC(=O)C1CCN(C(C(=O)c2c[nH]c3ccccc23)c2ccccc2)CC1 (stereo not given)
  growth inhibition at single dose: < 70%

## CC(C)(C)c1ccc(C(=O)Nc2cc(F)ccc2F)s1
  growth inhibition at single dose: < 70%

## CCOC(=O)c1c[nH]c2cc(Cl)cc(Cl)c2c1=O
  growth inhibition at single dose: < 70%

## CC(C)n1nc(-c2cc3c(Cl)cccc3[nH]2)c2c(N)ncnc21
  growth inhibition at single dose: < 70%

## Cc1cc(C)n(-c2nc(-c3ccccc3)cc(N3CCOCC3)n2)n1
  growth inhibition at single dose: < 70%

## C[C@]12CC[C@H](O)C[C@H]1CCC1C2[C@H](O)C[C@]2(C)[C@@H](C3=CC(=O)OC3)CC[C@]12O (stereo not given in full)
  growth inhibition at single dose: < 70%

## CCOC(=O)c1c(NC(=O)Cn2ncc(Cl)c(Cl)c2=O)sc(C(=O)NC)c1C
  growth inhibition at single dose: < 70%

## Cc1cc(N)c(N)cc1C
  growth inhibition at single dose: < 70%

## CCn1c(SCC(=O)Nc2cc(C(F)(F)F)ccc2Cl)nc2ccccc2c1=O
  growth inhibition at single dose: < 70%

## Clc1cc2c(c3ncccc13)OCN(Cc1ccco1)C2
  growth inhibition at single dose: < 70%

## c1ccc2c(c1)CN(CC1CC1)CC1(CCN(Cc3c[nH]c4cnccc34)CC1)O2
  growth inhibition at single dose: < 70%

## CCOc1cc(Br)c(C(C)NC(=O)c2cccc(OC)c2)cc1OCC (stereo not given)
  growth inhibition at single dose: < 70%

## CCCc1ccc(-c2nc(-c3ccccc3)no2)cc1
  growth inhibition at single dose: < 70%

## FC(F)(F)c1cc(NCCc2ccccc2)nc(-c2ccccn2)n1
  growth inhibition at single dose: < 70%

## Cc1cc(NC(=O)c2cccc(S(=O)(=O)N3c4ccccc4CC3C)c2)no1 (stereo not given)
  growth inhibition at single dose: < 70%

## Cc1ccc2[nH]c3c(c2c1)CCCC3NCCCN(C)C (stereo not given)
  growth inhibition at single dose: < 70%

## CC[C@H](CO)NCCN[C@H](CC)CO
  growth inhibition at single dose: < 70%

## Cc1ccc(-c2cc(C(=O)Nc3cccnc3)c3cc(Br)ccc3n2)cc1
  growth inhibition at single dose: < 70%

## O=C(Nc1ccc(N2CCOCC2)nc1)c1ccc(S(=O)(=O)N2CCCc3ccccc32)cc1
  growth inhibition at single dose: < 70%

## O=C(Nc1ncccc1O)c1ccc(N2CCOCC2)nc1
  growth inhibition at single dose: < 70%

## Clc1ccc2nc(CSc3nnc4c(n3)[nH]c3ccccc34)cn2c1
  growth inhibition at single dose: < 70%

## COc1cccc(Nc2nc(N)c3ccccc3n2)c1
  growth inhibition at single dose: < 70%

## COCCn1c(C)cc(C(=O)CSc2nnc(C)s2)c1C
  growth inhibition at single dose: < 70%

## OC(CNC1CCCC1)Cn1c2ccccc2c2ccccc21 (stereo not given)
  growth inhibition at single dose: < 70%

## Cc1cc2ccccc2n1CC(=O)N1CC(C(=O)N2CCCCC2)Oc2ccccc21 (stereo not given)
  growth inhibition at single dose: < 70%

## COc1ccc2c(=O)c(C(=O)N(C)Cc3ccc(F)c(F)c3)c[nH]c2c1
  growth inhibition at single dose: < 70%

## CCn1nc(C(=O)NCc2ccc(OC)cc2)c2c1CCN(C(=O)c1cc(C)n[nH]1)C2
  growth inhibition at single dose: < 70%

## Nc1ccn(C2O[C@H](CO)[C@@H](O)[C@H]2O)c(=O)n1 (stereo not given in full)
  growth inhibition at single dose: < 70%

## Oc1ccccc1CN1CCC2(CCCN(Cc3ccccc3F)C2)C1 (stereo not given)
  growth inhibition at single dose: < 70%

## CN1N=C2c3ccccc3CCC2C1c1ccc(C(F)(F)F)cc1 (stereo not given)
  growth inhibition at single dose: < 70%

## Cc1nnc(NC(=O)c2cn(-c3ccccc3)nc2-c2ccccc2C)o1
  growth inhibition at single dose: < 70%

## O=C(COc1ccc2[nH]c3ccccc3c(=O)c2c1)N1c2ccccc2OCC1c1ccccc1 (stereo not given)
  growth inhibition at single dose: < 70%

## COc1ccc(CCNC(=O)c2cc(S(=O)(=O)N3CC(C)CC(C)C3)ccc2Sc2ccc(F)cc2)cc1OC (stereo not given)
  growth inhibition at single dose: < 70%

## COc1ccc(CCn2c(=N)c(C(=O)NCc3cccnc3)cc3c(=O)n4cccc(C)c4nc32)cc1
  growth inhibition at single dose: < 70%

## CNCCCNc1ccnc2cc(Cl)ccc12
  growth inhibition at single dose: < 70%

## CCOC(=O)c1c(C)[nH]c(C(=O)CSc2nccn2C)c1C
  growth inhibition at single dose: < 70%

## CN1CCN(c2nccc3[nH]c(-c4cccc(F)c4)cc23)CC1
  growth inhibition at single dose: < 70%

## CC(C)c1ncc(-c2ccncc2)c([C@H]2CC[C@H](CNC(=O)c3cccnc3)CC2)n1
  growth inhibition at single dose: < 70%

## O=C(Nc1ccc(Oc2cc(C(F)(F)F)cc(C(F)(F)F)c2)cc1)Nc1ccc(OC(F)(F)F)cc1
  growth inhibition at single dose: < 70%

## CC(C)Cn1c2c(c(O)c(C(=O)Nc3ncccc3O)c1=O)CCCC2
  growth inhibition at single dose: < 70%

## Cc1c(C)n(CCN(C)C)c2ncn3nc(-c4ccccc4O)nc3c12
  growth inhibition at single dose: < 70%

## FC(F)(F)c1cccc(CNc2ncnc3sccc23)c1
  growth inhibition at single dose: < 70%

## COc1cccn2c(C(=O)N3CCCCC3)c(C(F)(F)F)nc12
  growth inhibition at single dose: < 70%

## COc1cccc(-c2cc3c(Nc4cccnc4)nccc3[nH]2)c1
  growth inhibition at single dose: < 70%

## Cc1cc(C)c2c(C)c(C(=O)Nc3nc4ccccc4s3)sc2n1
  growth inhibition at single dose: < 70%

## CC(C)(C)OC(=O)N1CCC(Cn2nc(-c3cnc4ccccc4c3)c3c(N)ncnc32)CC1
  growth inhibition at single dose: < 70%

## Cc1ccc(OCCNC(=O)c2[nH]c3c(c2C)C(=O)CCC3)c(C)c1
  growth inhibition at single dose: < 70%

## Cc1cc(C)nc(SCC(=O)N2CCN(C(=O)c3ccco3)CC2)n1
  growth inhibition at single dose: < 70%

## CC(=O)NCc1ccc(C(=O)Nc2ccccc2O)cc1
  growth inhibition at single dose: < 70%

## Cn1c(=O)c2c(S(C)(=O)=O)snc2n(C)c1=O
  growth inhibition at single dose: < 70%

## CCc1nc2ccc(Cl)cn2c1C(=O)NCc1ccc(N2CCC(c3ccc(OC(F)(F)F)cc3)CC2)cc1
  growth inhibition at single dose: < 70%

## O=C(COc1ccc2[nH]c3ccccc3c(=O)c2c1)Nc1ccccc1Cc1ccccc1
  growth inhibition at single dose: < 70%

## C#CCNS(=O)(=O)c1ccc(C(=O)Nc2ccccc2O)cc1
  growth inhibition at single dose: < 70%

## CN1CCN(c2nccc3nc(-c4ccc(F)c(F)c4)[nH]c23)CC1
  growth inhibition at single dose: < 70%

## CO[C@H]1/C=C/O[C@@]2(C)Oc3c(C)c(O)c4c(O)c(/c(=C/NN5CCN(C)CC5)c(O)c4c3C2=O)=N\C(=O)/C(C)=C\C=C/[C@H](C)[C@H](O)[C@@H](C)[C@@H](O)[C@@H](C)[C@H](OC(C)=O)[C@@H]1C
  growth inhibition at single dose: < 70%

## Cc1ccc(-c2cnn3c(NCCN(C)C)cc(C)nc23)cc1
  growth inhibition at single dose: < 70%

## Cc1ccc(CNC(=O)c2ccc(/C=C3\SC(=O)NC3=O)cc2)cc1
  growth inhibition at single dose: < 70%

## COc1ccc(C(O)(CCC(C)C)C(CN2CCOCC2)c2ccc(Cl)cc2)cc1 (stereo not given)
  growth inhibition at single dose: < 70%

## CCOc1ccc(C2N(C)c3ccccc3N2C)cc1
  growth inhibition at single dose: < 70%

## O=C(NC1CCN(c2nccc(C(F)(F)F)n2)CC1)c1ccco1
  growth inhibition at single dose: < 70%

## CCCCN(CCCC)c1c(C#N)cc(S(=O)(=O)Nc2ccccc2)cc1C#N
  growth inhibition at single dose: < 70%

## CC1=C(C(=O)Nc2ccccc2)C(c2ccco2)C(C#N)=C(SCc2ccccc2Cl)N1 (stereo not given)
  growth inhibition at single dose: < 70%

## COc1ccc(C(=N)N)cc1-c1cn(-c2ccc(C(=N)N)cc2)nn1
  growth inhibition at single dose: < 70%

## CC1CN(C(=O)c2ccc(S(=O)(=O)Nc3ccccc3F)cc2)CC(C)O1 (stereo not given)
  growth inhibition at single dose: < 70%

## CC1Cc2cc(C(=O)CSc3nnc(Cc4cccs4)n3C)ccc2N1S(C)(=O)=O (stereo not given)
  growth inhibition at single dose: < 70%

## CCc1cccc2c(C(=O)COC(=O)C34CC5CC(CC(O)(C5)C3)C4)c[nH]c12
  growth inhibition at single dose: < 70%

## COc1ccc(-c2nc3cc(Cc4ccc5[nH]c(-c6ccc(OC)cc6)nc5c4)ccc3[nH]2)cc1
  growth inhibition at single dose: < 70%

## COc1cc(C2=NCCN2)ccc1-c1cn(-c2cccc(C3=NCCN3)c2)nn1
  growth inhibition at single dose: < 70%

## O=C(NCc1nnc2n1CCCCC2)c1ccc(-c2ccc(F)cc2)o1
  growth inhibition at single dose: < 70%

## O=C(NNc1cccc(F)n1)C(F)(F)F
  growth inhibition at single dose: < 70%

## O=C(c1cnn(C(=O)c2nn(-c3ccc(Cl)cc3)cc2O)c1)c1ccccc1O
  growth inhibition at single dose: < 70%

## Cc1c(C)c(C)c(S(=O)(=O)Nc2ccc3c[nH]nc3c2)c(C)c1C
  growth inhibition at single dose: < 70%

## Cc1ccccc1OCCSc1nc2ccc(NC(=O)c3ccccc3)cc2s1
  growth inhibition at single dose: < 70%

## N#CCc1c(C#N)c(N)nc(Nc2ccc(F)cc2F)c1C#N
  growth inhibition at single dose: < 70%

## C/N=c1\scc(-c2ccccc2OC)n1/N=C/c1ccc[nH]1
  growth inhibition at single dose: < 70%
